In ChEMBL document CHEMBL1201862, “PubChem BioAssay data set” (2004):
Calls of active or inactive are those of the source.

Assays:
Cytochrome P450 2D6 = Cytochrome P450 2D6 (Homo sapiens, UniProt P10635);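 also: CYP2D6 member of a cytochrome P450 panel assay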
Cytochrome P450 2C19 = Cytochrome P450 2C19 (Homo sapiens, UniProt P33261); assay: Cytochrome panel assay with activity outcomes. Panel member name: p450-cyp2c19 Compounds with AC50 equal or less than 10 uM are considered active; format: functional
cells [1] = format: functional, cell-based
cells [2] = format: functional, cell-based; remark: listed apart in the source
[3] = biological target: T1, Heat shock factor protein 1 (Mus musculus, UniProt P38532); assay: enhancement of HSF1-driven luciferase signal – cell-based, NIH3T3, luminescence, dose retest, confirmation (AID 435004); format: functional;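 also: stress induced by proteasome inhibitor MG132 added 30 min after compound; luciferase reporter driven by HSF1 response element in NIH3T3 cells; actives raise luminescence as potentiators of the MG132 stress response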
T1 sequence (P38532 whole entry): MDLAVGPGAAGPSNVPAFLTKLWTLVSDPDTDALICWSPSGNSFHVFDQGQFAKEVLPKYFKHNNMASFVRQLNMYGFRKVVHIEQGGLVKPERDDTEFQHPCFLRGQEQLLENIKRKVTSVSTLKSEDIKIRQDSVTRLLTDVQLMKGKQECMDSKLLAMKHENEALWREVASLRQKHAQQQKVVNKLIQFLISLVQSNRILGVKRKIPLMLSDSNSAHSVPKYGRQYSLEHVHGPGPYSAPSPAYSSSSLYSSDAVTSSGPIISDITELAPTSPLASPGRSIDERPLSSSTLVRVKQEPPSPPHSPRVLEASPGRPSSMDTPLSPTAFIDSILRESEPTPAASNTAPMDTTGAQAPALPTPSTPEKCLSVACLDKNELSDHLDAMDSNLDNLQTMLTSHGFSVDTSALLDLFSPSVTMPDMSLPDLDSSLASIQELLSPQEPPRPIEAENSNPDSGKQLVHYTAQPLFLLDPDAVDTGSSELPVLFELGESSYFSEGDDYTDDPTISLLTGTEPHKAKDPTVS

[4] = biological target: T2, Polyadenylate-binding protein 1 (Homo sapiens, UniProt P11940); assay: MLLE binding blockers, Cy5 peptide tracer – biochemical, fluorescence polarization, Cy5-PAM2 peptide, secondary, miRNA deadenylation inhibitor project, dose response (AID 602260); format: functional; conditions: read-out: IC50_Mean
[5] = biological target: T2, Polyadenylate-binding protein 1; assay: MLLE domain peptide-binding blockers, IC50 – biochemical, fluorescence polarization, FITC-PAM2 peptide, dose response (AID 602259); format: functional; conditions: read-out: IC50_Mean
Vero = assay: cells; format: functional; conditions: Chlorocebus sabaeus
[6] = biological target: T3, Ubiquitin-conjugating enzyme E2 N (Homo sapiens, UniProt P61088); format: functional;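 also: Dose-response confirmation in a TR-FRET assay detecting UBC13-driven polyubiquitin chain formation, inhibition measured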
T3 sequence (P61088 whole entry): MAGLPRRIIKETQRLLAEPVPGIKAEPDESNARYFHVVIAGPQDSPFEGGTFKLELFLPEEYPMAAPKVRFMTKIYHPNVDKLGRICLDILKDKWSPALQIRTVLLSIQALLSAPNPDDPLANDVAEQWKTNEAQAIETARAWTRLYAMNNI

[7] = reduction of Shn3 3'UTR-driven luciferase in osteoblasts – cell-based, Clone20 osteoblasts, firefly luciferase, cherry-picked, dose response (AID 624132); format: functional;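 also: firefly luciferase luminescence from reporter carrying the Shn3 3'UTR in osteoblasts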
[8] = loss of viability in HepG2 cells – cell-based, CellTiter-Glo, cherry-picked, cytotoxicity control for Shn3 inhibitor project, dose response (AID 624134); format: functional
[9] = viability of uninfected HEp-2 cells – cell-based, HTS, cytotoxicity control for RSV inhibitor project, dose response (AID 2410); format: functional; conditions: human respiratory syncytial virus
[10] = non-specific 3'UTR reporter inhibition in Clone20-Shn3RL – cell-based, Renilla luciferase, cherry-picked, counter-screen for Shn3 inhibitor project, dose response (AID 624133); format: functional

T2 sequence (P11940 whole entry, the tested form may be a part): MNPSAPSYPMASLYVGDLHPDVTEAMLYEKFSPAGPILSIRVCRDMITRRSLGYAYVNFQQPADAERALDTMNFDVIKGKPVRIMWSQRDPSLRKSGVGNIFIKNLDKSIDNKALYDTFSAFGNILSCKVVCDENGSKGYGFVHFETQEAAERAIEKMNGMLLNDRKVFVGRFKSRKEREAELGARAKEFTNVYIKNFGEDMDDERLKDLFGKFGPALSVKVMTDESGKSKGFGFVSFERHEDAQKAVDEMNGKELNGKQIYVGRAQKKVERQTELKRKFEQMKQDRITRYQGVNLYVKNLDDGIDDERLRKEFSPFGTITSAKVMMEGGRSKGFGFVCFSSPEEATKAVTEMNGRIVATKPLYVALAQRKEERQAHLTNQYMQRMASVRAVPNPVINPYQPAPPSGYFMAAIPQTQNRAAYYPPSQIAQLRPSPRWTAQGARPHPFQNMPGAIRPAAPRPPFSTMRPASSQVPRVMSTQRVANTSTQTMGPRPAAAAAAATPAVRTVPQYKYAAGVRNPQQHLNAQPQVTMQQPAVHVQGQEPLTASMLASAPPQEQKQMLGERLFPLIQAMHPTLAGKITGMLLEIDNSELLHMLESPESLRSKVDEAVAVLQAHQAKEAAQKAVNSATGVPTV
Sequence of Cytochrome P450 2D6 (P10635 whole entry): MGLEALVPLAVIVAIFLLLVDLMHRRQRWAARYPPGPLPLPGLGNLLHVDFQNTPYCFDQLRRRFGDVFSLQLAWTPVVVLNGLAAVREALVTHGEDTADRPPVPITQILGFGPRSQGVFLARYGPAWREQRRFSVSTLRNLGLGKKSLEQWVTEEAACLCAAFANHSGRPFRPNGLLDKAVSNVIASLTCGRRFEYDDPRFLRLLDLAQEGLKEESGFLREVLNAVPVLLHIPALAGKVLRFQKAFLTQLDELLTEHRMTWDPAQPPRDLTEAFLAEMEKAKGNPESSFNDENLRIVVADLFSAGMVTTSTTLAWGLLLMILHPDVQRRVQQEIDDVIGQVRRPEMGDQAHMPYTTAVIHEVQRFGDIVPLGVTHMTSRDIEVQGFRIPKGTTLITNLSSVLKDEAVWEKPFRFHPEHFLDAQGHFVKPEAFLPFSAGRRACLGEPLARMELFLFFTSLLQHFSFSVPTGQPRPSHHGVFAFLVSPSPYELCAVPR
Sequence of Cytochrome P450 2C19 (P33261 whole entry): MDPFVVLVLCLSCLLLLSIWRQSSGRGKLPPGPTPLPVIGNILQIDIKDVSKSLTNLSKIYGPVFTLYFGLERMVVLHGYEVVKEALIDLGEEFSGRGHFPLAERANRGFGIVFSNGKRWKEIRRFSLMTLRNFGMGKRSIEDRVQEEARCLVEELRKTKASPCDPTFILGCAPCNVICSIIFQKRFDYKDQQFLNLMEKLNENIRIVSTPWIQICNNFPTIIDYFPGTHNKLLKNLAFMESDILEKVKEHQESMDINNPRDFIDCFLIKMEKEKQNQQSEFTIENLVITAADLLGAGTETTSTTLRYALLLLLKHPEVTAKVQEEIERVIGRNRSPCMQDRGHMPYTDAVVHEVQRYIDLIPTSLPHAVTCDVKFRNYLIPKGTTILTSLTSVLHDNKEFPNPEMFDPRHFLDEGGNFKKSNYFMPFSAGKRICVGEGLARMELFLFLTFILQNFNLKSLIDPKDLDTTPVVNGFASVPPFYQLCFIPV

Question: Which results are given for c1ccc(Nc2ncncc2-c2ccoc2)cc1?
Answer: AC50 (Cytochrome P450 2D6): 25.1 µM (inconclusive); AC50 (Cytochrome P450 2C19; read-out: AC50): 15.8 µM (inconclusive)

Question: With CC(C)c1ccc2oc(=O)cc(CN3CCOCC3)c2c1 as the compound, how does the EC50 (cells [1]) read?
Answer: Its EC50 is > 350 µM (not active).

Question: And the EC50 (cells [2])?
Answer: Its EC50 is > 350 µM (not active).

Question: Which EC50 (cells [1]) does the source give for Cc1ccccc1-n1c(=O)n(Cc2ccc(C(=O)O)cc2)c(=O)c2[nH]cnc21 here?
Answer: Its EC50 is > 350 µM (not active).

Question: What about the EC50 (cells [2]) of the same compound?
Answer: The EC50 was > 350 µM (not active).

Question: For COCCCN(CC(=O)O)S(=O)(=O)c1cccc(Cl)c1, which EC50 [3] is on record?
Answer: The EC50 was > 260 µM (inactive).

Question: With CCCCCCC1NC(C(=O)O)CS1 (centres undefined) as the compound, how does the IC50 [4] read?
Answer: The IC50 was > 66 µM (inactive).

Question: And the IC50 [5]?
Answer: Its IC50 is > 66 µM (inactive).

Question: For Cc1cc(C)cc(Oc2ccccc2/C=C\C(=O)O)c1, which EC50 [3] is on record?
Answer: Its EC50 is > 260 µM (inactive).

Question: With C=CCN(C(=O)CCC(=O)Nc1cc(C)on1)C(C(=O)NC(C)(C)C)c1cccc(OC)c1OC (centres undefined) as the compound, how does the EC50 [3] read?
Answer: The EC50 was > 260 µM (inactive).

Question: Which results are given for CC(=O)N1c2ccc(S(=O)(=O)NCCc3ccccc3)cc2CC1C (centres undefined)?
Answer: EC50 (cells [1]): > 350 µM (not active); EC50 (cells [2]): > 350 µM (not active)

Question: What does the source list for Cc1nc2[nH]c(=S)[nH]c(=O)c2nc1C?
Answer: IC50 [4]: > 66 µM (inactive); IC50 [5]: > 66 µM (inactive)

Question: For N#C/C(C[n+]1cn(NC(=O)Nc2ccccc2)cn1)=N/O, which EC50 [3] is on record?
Answer: The EC50 was > 260 µM (inactive).

Question: Which CC50 (Vero) does the source give for COc1ccc(Cl)cc1C=CC=NNS(=O)(=O)c1ccc(C)cc1 here?
Answer: The CC50 was > 25 µM (active).

Question: For CSc1nccc(Nc2ccccc2)c1C#N, which IC50 [6] is on record?
Answer: The IC50 was > 20 µM (inactive).

Question: For O=C(N/N=C/c1cc(Br)c(Br)o1)c1cccnc1, which IC50 [4] is on record?
Answer: Its IC50 is > 66 µM (inactive).

Question: What about the IC50 [5] of the same compound?
Answer: The IC50 was 44.3 µM (inactive).

Question: For O=c1c2ccccc2nnn1CSc1ccc2c(c1)OCCO2, which AC50 (Cytochrome P450 2D6) is on record?
Answer: Its AC50 is 28.2 µM (inconclusive).

Question: Which IC50 [4] does the source give for COc1ccc(C(=S)N2CCN(c3ccccc3Cl)CC2)cc1OC here?
Answer: Its IC50 is > 66 µM (inactive).

Question: And the IC50 [5]?
Answer: Its IC50 is > 66 µM (inactive).

Question: For CSc1ccccc1-n1nnnc1SCC(=O)NCc1cccs1, which EC50 [3] is on record?
Answer: The EC50 was > 260 µM (inactive).

Question: For Cc1ccc(S(=O)(=O)N[C@H]2COC(=O)C/C=C\[C@@H](C)[C@H](NS(=O)(=O)c3ccc(C)cc3)COC(=O)[C@H](C)NC(=O)C/C=C\[C@H]2C)cc1, which AC50 (Cytochrome P450 2D6) is on record?
Answer: Its AC50 is 3.98 µM (inconclusive).

Question: And the AC50 (Cytochrome P450 2C19)?
Answer: Its AC50 is “inconclusive”.

Question: With COc1cc(OCc2ccccc2)c(C(=O)/C=C/c2ccc3c(c2)OCO3)c(OC)c1OC as the compound, how does the CC50 (Vero) read?
Answer: The CC50 was > 25 µM (active).

Question: With Cc1cccn2c(=O)c3cc(C(=O)NC4CCCC4)c(=N)n(Cc4ccc(F)cc4)c3nc12 as the compound, how does the CC50 (Vero) read?
Answer: Its CC50 is > 25 µM (active).

Question: Which CC50 (Vero) does the source give for CN(C)CCCN(C(=O)c1ccco1)c1nc2ccc(Cl)cc2s1 here?
Answer: The CC50 was > 25 µM (active).

Question: For COc1ccccc1CCNS(=O)(=O)c1cc2c3c(c1)C(C)C(=O)N3CCC2 (centres undefined), which EC50 (cells [1]) is on record?
Answer: Its EC50 is > 350 µM (not active).

Question: What about the EC50 (cells [2]) of the same compound?
Answer: The EC50 was > 350 µM (not active).

Question: With Cc1ccc(C(=O)Nc2nnc(C3CCCCC3)s2)o1 as the compound, how does the EC50 [3] read?
Answer: The EC50 was 44.6 µM (active).

Question: With Cn1c(/C=C/c2ccc(Cl)cc2Cl)c([N+](=O)[O-])c(=O)n(C)c1=O as the compound, how does the CC50 (Vero) read?
Answer: The CC50 was 20.5 µM (active).

Question: And the AC50 [7]?
Answer: The AC50 was 6.87 µM (active).

Question: What about the AC50 [8] of the same compound?
Answer: Its AC50 is 64.4 µM (active).

Question: What about the CC50 [9] of the same compound?
Answer: The CC50 was 37.5 µM (active).

Question: And the AC50 [10]?
Answer: Its AC50 is 8.75 µM (active).

Question: Which AC50 (Cytochrome P450 2D6) does the source give for C=CCOC(=O)/C(=C\c1cccc2ccccc12)NC(=O)c1ccccc1 here?
Answer: The AC50 was 22.4 µM (inconclusive).

Question: With N#Cc1sc2nc(N3CCCCC3)c3c(c2c1N)CCCC3 as the compound, how does the CC50 (Vero) read?
Answer: Its CC50 is > 25 µM (active).
